Test results as given in US10912817B2, “Prelyophilized, lyophilized and reconstituted formulations comprising TAT-NR2B9C with d-amino acids, histidine and trehalose” (NoNO Inc., priority 2012, dated 2021).
No end group written: not given here.

Key:
Assay type in all cases: physicochemical
[1] = Solubility study of NA-1 (visual analysis); conditions: pH 6.5, 35, 50, 75 and 100 mg/mL, t=0 and t=24 hours
Procedure: Due to the relatively low Tg temperatures that would likely require a longer lyophilization cycle to dry, we looked at a wider range of standard bulking agents and looked to reduce the fill volume into the container closure system so that there would be a reduced volume of liquid to lyophilize. […] Samples were visually analyzed at 35, 50, 75 and 100 mg/mL. All solutions were clear at t=0 and t=24 hours. […] A wide range of quantities may be required in a vial, but 270 mg would provide a […] dose for a 100 kg patient. Assuming the target reconstitution concentration for patient administration is still 20 mg/mL (but can be from 1 mg/ml to 100 mg/ml), then a 20-mL lyophilization vial containing 270 mg of NA-1 can be used with a reconstitution volume of 13.5 mL. Therefore, optimal volumes of liquid for lyophilization of NA-1 in the vial would be between 2.5 mL and 10 mL.

[2] = Solid state stability of lyophilized 270 mg NA-1 in 20 mM histidine pH 6.5 and 120 mM trehalose; conditions: same lyophile; at −20° C.
[3] = 90 mg/mL NA-1 lyophile accelerated stability (small scale 3); conditions: histidine buffer concentrations of 50 and 75 mM; further tests; shortened resuspension times
Procedure: A small batch of NA-1 drug product was lyophilized to evaluate solid state stability after 1 week storage at 25° C. and 60° C. Two 90 mg/mL NA-1 formulations were compounded (buffer and buffer with trehalose). Samples were evaluated for appearance, reconstitution, water content and purity by HPLC (MSA method) at t=0 and t=1 week.
Vials were placed on stability at 25° C. and 60° C. and tested after 1 week of storage.

YGRKKRRQRRRKLSSIESDV [NA-1]
solubility (visual analysis of solutions) ([1]; NA-1 in Histidine+Trehalose): clear | solubility (visual analysis of solutions) ([1]; NA-1 in Histidine): clear | stability of the formulation [2]: stable | stability of NA-1 [3]: good stability
